{
  "source": "patent US20040077540A1",
  "about": "“Compositions and methods for modulating physiology of epithelial junctional adhesion molecules for enhanced mucosal delivery of therapeutic compounds” (Nastech Pharmaceutical Company Inc., priority 2002, published 2004)",
  "system": "EpiAirway™ Cell Membrane (mucosal epithelial cell layer)",
  "assay": "Transepithelial electrical resistance (TER) assay in EpiAirway Cell Membrane",
  "assay_type": "cell-based",
  "conditions": "for Average TER Value: permeabilizing peptide 1.0 mM on EpiAirway Cell Membrane, each group of lines has its own CONTROL; for TER % of Control: permeabilizing peptide 1.0 mM, control normalized to 100, decrease = increased permeability",
  "experimental": "The EpiAirway™ system was developed by MatTek Corp (Ashland, Mass.) as a model of the pseudostratified epithelium lining the respiratory tract. The epithelial cells are grown on porous membrane-bottomed cell culture inserts at an air-liquid interface, which results in differentiation of the cells to a highly polarized morphology. The apical surface is ciliated with a microvillous ultrastructure and the epithelium produces mucus (the presence of mucin has been confirmed by immunoblotting). The inserts have a diameter of 0.875 cm, providing a surface area of 0.6 cm^2. The cells are plated onto the inserts at the factory approximately three weeks before shipping. One “kit” consists of 24 units.\nA. On arrival, the units are placed onto sterile supports in 6-well microplates. Each well receives 5 mL of proprietary culture medium. This DMEM-based medium is serum free but is supplemented with epidermal growth factor and other factors. […] The 5 mL volume is just sufficient to provide contact to the bottoms of the units on their stands, but the apical surface of the epithelium is allowed to remain in direct contact with air. Sterile tweezers are used in this step and in all subsequent steps involving transfer of units to liquid-containing wells to ensure that no air is trapped between the bottoms of the units and the medium.\nB. The units in their plates are maintained at 37° C. in an incubator in an atmosphere of 5% CO2 in air for 24 hours. At the end of this time the medium is replaced with fresh medium and the units are returned to the incubator for another 24 hours.\nA. A “kit” of 24 EpiAirway™ units can routinely be employed for evaluating five different formulations, each of which is applied to quadruplicate wells. Each well is employed for determination of permeation kinetics (4 time points), transepithelial electrical resistance (TER), mitochondrial reductase activity as measured by MTT reduction, and cytolysis as measured by release of LDH. An additional set of wells is employed as controls, which are sham treated during determination of permeation kinetics, but are otherwise handled identically to the test sample-containing units for determinations of transepithelial resistance and viability. The determinations on the controls are routinely also made on quadruplicate units, but occasionally we have employed triplicate units for the controls and have dedicated the remaining […] units in the kit to measurements of transepithelial resistance and viability on untreated units or we have frozen and thawed the units for determinations of total LDH levels to serve as a reference for 100% cytolysis.\nA. Respiratory airway epithelial cells form tight junctions in vivo as well as in vitro, and thereby restrict the flow of solutes across the tissue. These junctions confer a transepithelial resistance of several hundred ohms×cm^2 in excised airway tissues. In the MatTek EpiAirway™ units, the transepithelial electrical resistance (TER) is reported by the manufacturer to be routinely around 1000 ohms×cm^2. […] The porous membrane-bottomed units without cells, conversely, provide only minimal transmembrane resistance (approximately 5-20 ohms×cm^2).\nB. Accurate determinations of TER require that the electrodes of the ohmmeter be positioned over a significant surface area above and below the membrane, and that the distance of the electrodes from the membrane be reproducibly controlled. The method for TER determination recommended by MatTek and employed for all experiments herein employs an “EVOM”™ epithelial voltohmmeter and an “ENDOHM”™ tissue resistance measurement chamber from World Precision Instruments, Inc., Sarasota, Fla.\nC. The chamber is initially filled with Dulbecco's phosphate buffered saline (PBS) for at least 20 minutes prior to TER determinations in order to equilibrate the electrodes.\nD. Determinations of TER are made with 1.5 mL of PBS in the chamber and 350 μL of PBS in the membrane-bottomed unit being measured. […]",
  "data": [
    {"sequence": "AMYEGLWMSC [NP-38, Claudin-1 1st extracellular domain]", "values": [
      {"measurement": "Average TER Value", "value": "291 ± 89", "unit": "ohms-cm^2"},
      {"measurement": "TER % of Control", "value": 63.7, "unit": "%"}
    ]},
    {"sequence": "ATHSTGITQC [NP-44, Claudin-2: 1st extracellular domain]", "values": [
      {"measurement": "Average TER Value", "value": "464 ± 61", "unit": "ohms-cm^2"},
      {"measurement": "TER % of Control", "value": 134.1, "unit": "%"}
    ]},
    {"sequence": "DRGYGTSLL [NP-3, Occludin: 1st extracellular domain]", "values": [
      {"measurement": "Average TER Value", "value": "766 ± 94", "unit": "ohms-cm^2"},
      {"measurement": "TER % of Control", "value": 145.4, "unit": "%"}
    ]},
    {"sequence": "FIGSNIITSQ [NP-37, Claudin-3: 1st extracellular domain]", "values": [
      {"measurement": "Average TER Value", "value": "304 ± 41", "unit": "ohms-cm^2"},
      {"measurement": "TER % of Control", "value": 66.5, "unit": "%"}
    ]},
    {"sequence": "FIGSNIVTSQ [NP-35, Claudin-4: 1st extracellular domain]", "values": [
      {"measurement": "Average TER Value", "value": "298 ± 56", "unit": "ohms-cm^2"},
      {"measurement": "TER % of Control", "value": 65.2, "unit": "%"}
    ]},
    {"sequence": "FLDHNIVTAQ [NP-20, Claudin-5: 1st extracellular domain]", "values": [
      {"measurement": "Average TER Value", "value": "341 ± 31", "unit": "ohms-cm^2"},
      {"measurement": "TER % of Control", "value": 92.2, "unit": "%"}
    ]},
    {"sequence": "GEVKVKLIV [NP-9, JAM-1 extracellular domain]", "values": [
      {"measurement": "Average TER Value", "value": "342 ± 185", "unit": "ohms-cm^2"},
      {"measurement": "TER % of Control", "value": 92.4, "unit": "%"}
    ]},
    {"sequence": "GGSVGYPYG [NP-39, Occludin: 1st extracellular domain]", "values": [
      {"measurement": "Average TER Value", "value": "442 ± 185", "unit": "ohms-cm^2"},
      {"measurement": "TER % of Control", "value": 127.7, "unit": "%"}
    ]},
    {"sequence": "GSGFGSYGS [NP-5, Occludin: 1st extracellular domain]", "values": [
      {"measurement": "Average TER Value", "value": "520 ± 134", "unit": "ohms-cm^2"},
      {"measurement": "TER % of Control", "value": 98.7, "unit": "%"}
    ]},
    {"sequence": "GYGYGYGYG [NP-4, Occludin: 1st extracellular domain]", "values": [
      {"measurement": "Average TER Value", "value": "500 ± 42", "unit": "ohms-cm^2"},
      {"measurement": "TER % of Control", "value": 94.9, "unit": "%"}
    ]},
    {"sequence": "IVVREFYDPS [NP-14, Claudin-5: 2nd extracellular domain]", "values": [
      {"measurement": "Average TER Value", "value": "286 ± 56", "unit": "ohms-cm^2"},
      {"measurement": "TER % of Control", "value": 92.9, "unit": "%"}
    ]},
    {"sequence": "KFDQGDTTR [NP-6, JAM-1 extracellular domain]", "values": [
      {"measurement": "Average TER Value", "value": "793 ± 44", "unit": "ohms-cm^2"},
      {"measurement": "TER % of Control", "value": 150.5, "unit": "%"}
    ]},
    {"sequence": "KVFDSLLNLS [NP-2, Claudin-1: 1st extracellular domain]", "values": [
      {"measurement": "Average TER Value", "value": "709 ± 28", "unit": "ohms-cm^2"},
      {"measurement": "TER % of Control", "value": 134.5, "unit": "%"}
    ]},
    {"sequence": "KVYDSLLALP [NP-7, Claudin-3: 1st extracellular domain]", "values": [
      {"measurement": "Average TER Value", "value": "811 ± 87", "unit": "ohms-cm^2"},
      {"measurement": "TER % of Control", "value": 153.9, "unit": "%"}
    ]},
    {"sequence": "KVYDSVLALS [NP-43, Claudin-5: 1st extracellular domain]", "values": [
      {"measurement": "Average TER Value", "value": "446 ± 85", "unit": "ohms-cm^2"},
      {"measurement": "TER % of Control", "value": 128.9, "unit": "%"}
    ]},
    {"sequence": "LVCYNNKIT [NP-13, JAM-1 extracellular domain]", "values": [
      {"measurement": "Average TER Value", "value": "288 ± 51", "unit": "ohms-cm^2"},
      {"measurement": "TER % of Control", "value": 93.5, "unit": "%"}
    ]},
    {"sequence": "NIWEGLWMNC [NP-34, Claudin-3: 1st extracellular domain]", "values": [
      {"measurement": "Average TER Value", "value": "297 ± 40", "unit": "ohms-cm^2"},
      {"measurement": "TER % of Control", "value": 65.0, "unit": "%"}
    ]},
    {"sequence": "NRIVQEFYDP [NP-11, Claudin-1: 2nd extracellular domain]", "values": [
      {"measurement": "Average TER Value", "value": "292 ± 20", "unit": "ohms-cm^2"},
      {"measurement": "TER % of Control", "value": 94.8, "unit": "%"}
    ]},
    {"sequence": "SVTVHSSEP [NP-1, JAM-1 extracellular domain]", "values": [
      {"measurement": "Average TER Value", "value": "606 ± 130", "unit": "ohms-cm^2"},
      {"measurement": "TER % of Control", "value": 115.0, "unit": "%"}
    ]},
    {"sequence": "TIWEGLWMNC [NP-40, Claudin-4: 1st extracellular domain]", "values": [
      {"measurement": "Average TER Value", "value": "457 ± 146", "unit": "ohms-cm^2"},
      {"measurement": "TER % of Control", "value": 100.0, "unit": "%"}
    ]},
    {"sequence": "TTWLGLWMSC [NP-45, Claudin-1: 1st extracellular domain]", "values": [
      {"measurement": "Average TER Value", "value": "456 ± 162", "unit": "ohms-cm^2"},
      {"measurement": "TER % of Control", "value": 131.8, "unit": "%"}
    ]},
    {"sequence": "VSEEGGNSY [NP-12, JAM-1 extracellular domain]", "values": [
      {"measurement": "Average TER Value", "value": "279 ± 27", "unit": "ohms-cm^2"},
      {"measurement": "TER % of Control", "value": 90.6, "unit": "%"}
    ]},
    {"sequence": "VSQSTGQIQC [NP-18, Claudin-1: 1st extracellular domain]", "values": [
      {"measurement": "Average TER Value", "value": "439 ± 145", "unit": "ohms-cm^2"},
      {"measurement": "TER % of Control", "value": 118.6, "unit": "%"}
    ]},
    {"sequence": "VVQSTGHMQC [NP-16, Claudin-5: 1st extracellular domain]", "values": [
      {"measurement": "Average TER Value", "value": "386 ± 44", "unit": "ohms-cm^2"},
      {"measurement": "TER % of Control", "value": 104.3, "unit": "%"}
    ]},
    {"sequence": "VVQSTGQMQC [NP-36, Claudin-3: 1st extracellular domain]", "values": [
      {"measurement": "Average TER Value", "value": "306 ± 58", "unit": "ohms-cm^2"},
      {"measurement": "TER % of Control", "value": 67.0, "unit": "%"}
    ]},
    {"sequence": "YGYGGYTDP [NP-15, Occludin: 1st extracellular domain]", "values": [
      {"measurement": "Average TER Value", "value": "383 ± 79", "unit": "ohms-cm^2"},
      {"measurement": "TER % of Control", "value": 103.5, "unit": "%"}
    ]},
    {"sequence": "YVGASIVTAV [NP-19, Claudin-2: 1st extracellular domain]", "values": [
      {"measurement": "Average TER Value", "value": "374 ± 57", "unit": "ohms-cm^2"},
      {"measurement": "TER % of Control", "value": 101.1, "unit": "%"}
    ]}
  ]
}
